From US20100272837A1, “TRADITIONAL CHINESE MEDICINAL COMPOSITIONS FOR TREATING DEPRESSION , FORMULATION THEREOF, METHOD FOR PREPARING THE SAME THEREOF” (HEBEI YILING MEDICINE RESEARCH INSTITUTE CO. LTD., priority 2006, published 2010)
Counter-ions that a name gives are not always drawn.

Experiments:
Type in all cases: in vivo, ICR mice
[1] = system: normal mice; assay: Analgetic effects on normal mice (hot plate method); settings: 0.33 g/kg body weight, gavage 3 days; hot plate 56±0.5
Procedure: ICR female mice having a body weight of 18-22 g were stochastically divided into six groups according to the body weight. Before test, the temperature of the aqueous thermostat was controlled at 56±0.5[…]. One mouse was placed on the hot plate each time, and the time of licking postpedes was defined as the pain threshold of said mouse. […] The normal pain thresholds were measured again. The average value of two normal pain thresholds was used as the pain threshold of the mouse before administration. […] There were 22 mice in the normal control group, and there were 11 mice in each of other groups.

[2] = system: mice given acetic acid; assay: Stretching caused by intraperitoneal acetic acid (stretching method); settings: 0.33 g/kg body weight, gavage 3 days; 0.6% glacial acetic acid ip; during 15 minutes
Text: Method: ICR mice having a body weight of 18-22 g, half male and half female, were randomly divided into five groups according to the body weight, including the group of 5 g/kg body weight capsules of the present invention, the group of 2.5 g/kg body weight capsules of the present invention, the group of 1.25 g/kg body weight capsules of the present invention, the aspirin group (0.33 g/kg body weigh), and the normal control group (administered with isovolumetric normal saline). There were 19 mice in the normal control group, and there were 10-11 mice in each of other groups. The animals in the groups of administration with a drug were consecutively administered for 3 days by gavage. Except the normal control group, each mouse in other groups was administered by intraperitoneal injection with 0.1 ml/10 g body weight 0.6% glacial acetic acid at 1 h after the final administration. Then the times of stretching caused by glacial acetic acid during 15 minutes after injection were recorded.

[3] = system: mice given sodium pentobarbital; assay: Rate of falling asleep caused by intraperitoneal sodium pentobarbital; settings: 0.33 g/kg body weight, gavage 7 days; sodium pentobarbital 35 mg/kg ip; 11 animals
Procedure: III. […] Method: ICR mice having a body weight of 18-22 g, half male and half female, were randomly divided into five groups according to the body weight (see Table 14 for details). The animals in the groups of administration with a drug were consecutively administered for 7 days by gavage. Mice were weighed before the last administration, and administered by intraperitoneal injection with 35 mg/kg body weight sodium pentobarbital at 1 h after the last administration. The number of animals falling asleep was recorded.

[4] = system: mice of reserpine depression model; assay: Eyelids closing (ptosis) caused by reserpine; settings: for Number of animals which close the eyelids at 1 h after the administration, ± (semi-open eyelids) / Number of animals which close the eyelids at 1 h after the administration, − (open eyelids) / Number of animals which close the eyelids at 1 h after the administration, □ (close eyelids) / Number of animals which close the eyelids at 2 h after the administration, ± (semi-open eyelids) / Number of animals which close the eyelids at 2 h after the administration, − (open eyelids) / Number of animals which close the eyelids at 2 h after the administration, □ (close eyelids) / Number of animals which close the eyelids at 6 h after the administration, ± (semi-open eyelids) / Number of animals which close the eyelids at 6 h after the administration, − (open eyelids) / Number of animals which close the eyelids at 6 h after the administration, □ (close eyelids): gavage 22 days, reserpine 2 mg/kg ip, 15 animals; for effect on reserpine-induced ptosis (in words): P<0.01
Procedure: (§1) Method: ICR male mice (SPF-grade, having a body weight of 17-20 g) were stochastically divided into seven groups according to the body weight, and the administration dosages can be found in Table 1. The animals in the groups of administration with a drug were administered by gavage for 22 consecutive days. The normal control group and the reserpine control group were administered by gavage with isovolumetric distilled water (0.2 ml/10 g body weight). 2 mg/kg body weight of reserpine was administered by intraperitoneal injection on the 22nd day. After 1 h, 2 h and 6 h of injection of reserpine, animals were placed on a bracket and under observation for 15 s to record the number of animals that closed the eyelids (wherein “−” represents open eyelids; “±” represents semi-open eyelids; and “+” represents close eyelids). […] At 2 h, 4 h, and 6 h after the administration of reserpine, animals were placed at the center of a piece of circular white paper with a diameter of 7.5 cm and under observation for 15 s to record the number of animals that still remained within the circle in 15 s.

[5] = system: mice of reserpine depression model; assay: “Excircle” behaviour (akinesia) of mice treated with reserpine; settings: for Number of animals that have excircle behaviors at 2 h, Excircle (+) / Number of animals that have excircle behaviors at 2 h, Within circle (□) / Number of animals that have excircle behaviors at 4 h, Excircle (+) / Number of animals that have excircle behaviors at 4 h, Within circle (□) / Number of animals that have excircle behaviors at 6 h, Excircle (+) / Number of animals that have excircle behaviors at 6 h, Within circle (□): gavage 22 days, reserpine 2 mg/kg ip, 15 animals; for effect on “excircle” rate of reserpine mice (in words): P<0.05 or P<0.01
Procedure: as §1

[6] = system: mice of reserpine depression model; assay: Body temperature of mice treated with reserpine; settings: for Body temperature, 6 h after making models: rectal temperature; for effect on fall in body temperature caused by reserpine (in words): P<0.01
Procedure: Method: ICR male mice (SPF-grade, having a body weight of 18-22 g) were stochastically divided into seven groups according to the body weight, and the dosages administrated are shown in Table 7. The animals in the groups of administration with a drug were administered for 22 consecutive days, and the basal body temperature (rectal temperature) of the animals was measured before administration on the 22nd day. […] The difference values of body temperature before and after administration and the difference values of their own body temperatures were calculated so as to conduct the statistical comparison by single factor analysis of variance (H. G Vogel & W. H. Vogel, Drug Discovery and Evaluation […]Guidance for Pharmacological Assays, translated by D U Guanhua et al, [M] Beijing: Science Press, 2001.409,412). The results can be found in Tables 7 and 8.

[7] = system: mice of reserpine depression model; assay: NA, DA and 5-HT in the brain tissue of reserpine mice (fluorophotometry); settings: for 5-HT in the brain tissue of reserpine mice / DA in the brain tissue of reserpine mice / NA in the brain tissue of reserpine mice: gavage 25 days, reserpine 1 mg/kg ip
Procedure: The animals in the groups of administration with a drug were administered by gavage for 25 consecutive days. The normal control group and reserpine control group were administered with isovolumetric distilled water. On the 23rd day of the test, 1 mg/kg body weight of reserpine was ip administered for each group except the normal control group, and each group receiving reserpine was administered once more. At 1 hour after the last administration of reserpine, the heads of mice were cut off and the brain tissues were taken out, frozen with dry ice and preserved at −20□. The content of noradrenaline (NA), dopamine (DA) and 5-hydroxytryptamine (5-HT) in the cerebellar tissue homogenate was measured respectively by means of fluorophotometry.
(§2) At the end of the test, the heads of mice were rapidly cut off and the brain tissues were immediately taken out, promptly frozen with dry ice and moved into a refrigerator having a temperature of −20□. The tissue was defreezed before homogenization. The cerebellum, medulla oblongata and olfactory bulb were removed, and then 300 mg brain tissue was weighed with a analytical balance. Then 10 times amount by volume of acidic n-butanol (prepared by saturating 100 ml re-steamed n-butanol with NaCl, and mixing with 0.85 ml strong hydrochloric acid) were added into the brain tissue for homogenization.
(§3) The brain tissue homogenate was centrifugated (2,000 rpm) for 5 min. Then 2.5 ml supernatant was taken out and placed in centrifuge tube with a plug containing 1 ml 0.1N HC1 and 5 ml n-heptane. The centrifuge tube was placed on the KS vibrator, oscillated for 5 min and centrifugated (2,500 rpm) for 5 min. 6 to ml upper organic phase was placed into the tube having a plug and containing 0.6 ml 0.033 M NaHCO3 so as to extract 5-HIAA. Then 0.5 ml and 0.4 ml were respectively taken out from the lower aqueous phase, wherein the former was used to measure NA and DA, and the latter was used to measure 5-HT.
(§4) Internal standard tube treatment: 9 ml of the acidic n-butanol homogenate was averagely divided into 3 tubes, to two of them, 40 μl mixed standard solution (respectively containing 5 μg/ml standard substances of NA, DA and 5-HT) was added.

[8] = system: normal mice; assay: NA, DA and 5-HT in the brain tissue of normal mice (fluorophotometry); settings: for 5-HT in the brain tissue of normal mice / DA in the brain tissue of normal mice / NA in the brain tissue of normal mice: gavage 25 days, 80 min after final administration; for effect on 5-HT in brain tissue of normal mice (in words) / effect on NA and DA in brain tissue of normal mice (in words): positive control, P<0.01
Procedure: Method: ICR male mice; and the groups and administration doses can be found in Table 10. The animals in the groups of administration with a drug were administered by gavage for 25 consecutive days. At 80 min after the final administration, the heads of mice were cut off and the brain tissues were taken out, frozen with dry ice and preserved at −20□. The content of noradrenaline (NA), dopamine (DA) and 5-hydroxytryptamine (5-HT) in the whole brain homogenate without cerebellum was measured respectively by means of the fluorophotometry^[2].
as §2, §3, §4
(3) Measurement: The fluorophotometry was conducted on NA, DA and 5-HT (KUANG Peigen, ZHOU Xinfu and XU Bo, Extraction of Monoamine Neurotransmitters in Brain Tissue and Measurement of the Neurotransmitters by Means of Fluorophotometry, Academic Journal of PLA Postgraduate Medical School, 1982, 3(2) 181-185).

[9] = system: 5-HTP model mice; assay: Shaking-head behavior induced by 5-hydroxytryptophane (5-HTP) after pargyline; settings: 14 mg/kg body weight; P<0.01
Text: (IV) Effects of Capsules of the Present Invention on Shaking-Head Behavior Induced by 5-hydroxytryptophane (5-HTP) 1. Principle: according to the monoamine hypothesis on the occurrence of depression, the function of antidepressant lies in that it can enhance the functions of the noradrenergic and/or serotonergic nerve. A great variety of antidepressant may enhance the effect of 5-HT by blocking the reuptake of 5-HT. 5-HTP may be used as a precursor of 5-HT, and monoamine oxidase inhibitor—pargyline hydrochloride may inhibit the enzymatic degradation thereof. The characteristic symptom—shaking-head behavior is obvious on mice. The enhancement of shaking-head behavior of mice after administration of the test drug may be used as an evidence to the fact that the inhibition of 5-HT uptaking function is the anti-depression mechanism. 2. Method: ICR male mice (20±1 g) were stochastically divided into seven groups according to the body weight, and each group comprises 12 animals. The animals in the groups of administration with a drug were consecutively administered by gavage for 21 days. […] Except the normal control group, other groups were administered with 20 mg/kg body weight of 5-HTP by intraperitoneal injection 90 min after injection of pargyline; and the times of shaking-head behavior were recorded in the following 10 minutes.

[10] = 0.014 g/kg body weight, 22 days, reserpine 2 mg/kg ip
[11] = 0.01 g/kg body weight, 5 animals
[12] = 0.01 g/kg body weight per Table 10
[13] = 0.050 g/kg body weight, 22 days, reserpine 2 mg/kg ip
[14] = 0.050 g/kg body weight, 8 animals
[15] = 0.05 g/kg body weight per Table 10

CC(=O)Oc1ccccc1C(=O)O [Aspirin]
Pain threshold, 1 h after admi. [1]: 18.27 ± 12.52 S
Pain threshold, 3 h after admi. [1]: 15.27 ± 2.57 S
Pain threshold, 5 h after admi. [1]: 16.09 ± 4.70 S
Stretching times [2]: 12.00 ± 9.20
Number of animals falling asleep, Falling asleep [3]: 5
Number of animals falling asleep, Not falling asleep [3]: 6

CNCCC(Oc1ccc(C(F)(F)F)cc1)c1ccccc1 (centres unmarked) [Fluose fine hydrochloride, Fluoxetine Hydrochloride]
Number of animals which close the eyelids at 1 h after the administration, ± (semi-open eyelids) ([4]; 0.014 g/kg body weight): 8
Number of animals which close the eyelids at 1 h after the administration, − (open eyelids) ([4]; 0.014 g/kg body weight): 7
Number of animals which close the eyelids at 1 h after the administration, □ (close eyelids) ([4]; 0.014 g/kg body weight): 0
Number of animals which close the eyelids at 2 h after the administration, ± (semi-open eyelids) ([4]; 0.014 g/kg body weight): 6
Number of animals which close the eyelids at 2 h after the administration, − (open eyelids) ([4]; 0.014 g/kg body weight): 5
Number of animals which close the eyelids at 2 h after the administration, □ (close eyelids) ([4]; 0.014 g/kg body weight): 4
Number of animals which close the eyelids at 6 h after the administration, ± (semi-open eyelids) ([4]; 0.014 g/kg body weight): 11
Number of animals which close the eyelids at 6 h after the administration, − (open eyelids) ([4]; 0.014 g/kg body weight): 2
Number of animals which close the eyelids at 6 h after the administration, □ (close eyelids) ([4]; 0.014 g/kg body weight): 2
effect on reserpine-induced ptosis (in words) ([4]; 14 mg/kg body weight): antagonistic against reserpine-induced ptosis
Number of animals that have excircle behaviors at 2 h, Excircle (+) ([5]; 0.014 g/kg body weight): 15
Number of animals that have excircle behaviors at 2 h, Within circle (□) ([5]; 0.014 g/kg body weight): 0
Number of animals that have excircle behaviors at 4 h, Excircle (+) ([5]; 0.014 g/kg body weight): 15
Number of animals that have excircle behaviors at 4 h, Within circle (□) ([5]; 0.014 g/kg body weight): 0
Number of animals that have excircle behaviors at 6 h, Excircle (+) ([5]; 0.014 g/kg body weight): 14
Number of animals that have excircle behaviors at 6 h, Within circle (□) ([5]; 0.014 g/kg body weight): 1
effect on “excircle” rate of reserpine mice (in words) ([5]; 14 mg/kg body weight): notably increase the “excircle” rate
Body temperature difference, 6 h after making models [6, 10]: 2.66 ± 1.11 □
Body temperature difference, 24 h after making models [6, 10]: 2.27 ± 1.00 □
Body temperature, 6 h after making models [6, 10]: 35.0 ± 0.87 □
effect on fall in body temperature caused by reserpine (in words) ([6]; 14 mg/kg body weight): notably antagonize the fall in body temperature
5-HT in the brain tissue of reserpine mice [7, 11]: 707.25 ± 115.94 ng/g
DA in the brain tissue of reserpine mice [7, 11]: 1967.20 ± 562.57 ng/g
NA in the brain tissue of reserpine mice [7, 11]: 1326.48 ± 670.50 ng/g
5-HT in the brain tissue of normal mice ([8]; 0.01 g/kg body weight): 841.85 ng/g
DA in the brain tissue of normal mice ([8]; 0.01 g/kg body weight): 1432.52 ± 395.77 ng/g
NA in the brain tissue of normal mice ([8]; 0.01 g/kg body weight): 896.46 ng/g
effect on 5-HT in brain tissue of normal mice (in words) [8, 12]: notably increase the level of 5-HT
effect on NA and DA in brain tissue of normal mice (in words) [8, 12]: increase the level of NA and DA
effect on 5-HTP-induced shaking-head behavior (in words) [9]: notably increase the times of 5-HTP-induced shaking-head behavior

CN(C)CCC=C1c2ccccc2CCc2ccccc21 [amitriptyline, Amitriptyline Hydrochloride]
Number of animals which close the eyelids at 1 h after the administration, ± (semi-open eyelids) ([4]; 0.050 g/kg body weight): 10
Number of animals which close the eyelids at 1 h after the administration, − (open eyelids) ([4]; 0.050 g/kg body weight): 4
Number of animals which close the eyelids at 1 h after the administration, □ (close eyelids) ([4]; 0.050 g/kg body weight): 1
Number of animals which close the eyelids at 2 h after the administration, ± (semi-open eyelids) ([4]; 0.050 g/kg body weight): 11
Number of animals which close the eyelids at 2 h after the administration, − (open eyelids) ([4]; 0.050 g/kg body weight): 2
Number of animals which close the eyelids at 2 h after the administration, □ (close eyelids) ([4]; 0.050 g/kg body weight): 2
Number of animals which close the eyelids at 6 h after the administration, ± (semi-open eyelids) ([4]; 0.050 g/kg body weight): 12
Number of animals which close the eyelids at 6 h after the administration, − (open eyelids) ([4]; 0.050 g/kg body weight): 0
Number of animals which close the eyelids at 6 h after the administration, □ (close eyelids) ([4]; 0.050 g/kg body weight): 3
effect on reserpine-induced ptosis (in words) ([4]; 50 mg/kg body weight): antagonistic against reserpine-induced ptosis
Number of animals that have excircle behaviors at 2 h, Excircle (+) ([5]; 0.050 g/kg body weight): 15
Number of animals that have excircle behaviors at 2 h, Within circle (□) ([5]; 0.050 g/kg body weight): 0
Number of animals that have excircle behaviors at 4 h, Excircle (+) ([5]; 0.050 g/kg body weight): 13
Number of animals that have excircle behaviors at 4 h, Within circle (□) ([5]; 0.050 g/kg body weight): 2
Number of animals that have excircle behaviors at 6 h, Excircle (+) ([5]; 0.050 g/kg body weight): 13
Number of animals that have excircle behaviors at 6 h, Within circle (□) ([5]; 0.050 g/kg body weight): 2
effect on “excircle” rate of reserpine mice (in words) ([5]; 50 mg/kg body weight): notably increase the “excircle” rate
Body temperature difference, 6 h after making models [6, 13]: 2.38 ± 1.30 □
Body temperature, 6 h after making models [6, 13]: 34.36 ± 1.12 □
effect on fall in body temperature caused by reserpine (in words) ([6]; 50 mg/kg body weight): notably antagonize the fall in body temperature
effect on NA and DA in brain tissue of reserpine mice (in words) ([7]; 50 mg/kg body weight): notably enhance the level of NA and DA
5-HT in the brain tissue of reserpine mice [7, 14]: 557.57 ± 174.75 ng/g
DA in the brain tissue of reserpine mice [7, 14]: 1806.61 ± 275.37 ng/g
NA in the brain tissue of reserpine mice [7, 14]: 1023.46 ± 619.56 ng/g
5-HT in the brain tissue of normal mice ([8]; 0.05 g/kg body weight): 1015.17 ng/g
DA in the brain tissue of normal mice ([8]; 0.05 g/kg body weight): 1519.29 ± 373.72 ng/g
NA in the brain tissue of normal mice ([8]; 0.05 g/kg body weight): 803.54 ng/g
effect on 5-HT in brain tissue of normal mice (in words) [8, 15]: notably increase the level of 5-HT
effect on NA and DA in brain tissue of normal mice (in words) [8, 15]: increase the level of NA and DA
